Measurements: patent US12357711B2, “PSMA binding dual mode radiotracer and therapeutic” (Technische Universität München, priority 2019, dated 2025)
Values joined by “and” are separate entries in the source; they are usually repeats but may differ in a detail not shown here. Equal entries are not always repeated. Where two headings read alike, the source gives them in different places.

Tests used:
[1] = tested on: LNCaP tumor bearing mouse; assay: Radio-HPLC quantification of relative changes of each rhPSMA7 isomer after [18F]rhPSMA7-rac, 30 min p.i.; assay type: in vivo, mice; settings: blood, liver, kidney, urine, 30 min p.i. of [18F][natGa]rhPSMA7-rac
Experimental: Analytical reversed-phase high pressure chromatography (RP-HPLC) were performed using Shimadzu gradient systems (Shimadzu Deutschland GmbH, Neufahrn, Germany), equipped with a SPD-20A UV/Vis detector (220 nm, 254 nm). […] Eluents for all HPLC operations were water (solvent A) and acetonitrile (solvent B), both containing 0.1% trifluoroacetic acid. […] The gradient for all HPLC operations was: 5% B isocratic 0-3 min, 25-35% B 3-43 min, 95-95% B 43-48 min.
In order to quantify the relative uptake of each isomer (rhPSMA-7.1-7.4), a tumor-bearing male CB-17-SCID mouse was injected with the racemic mixture of rhPSMA-7 (180-280 MBq, SA=247-349 GBq/μmol, produced at the Klinikum rechts der Isar in a fully automated procedure). […] The eluate was diluted with water and analysed by radio-HPLC. […]
Tumour and kidneys were separately homogenised in the tissue homogeniser with 1 mL of extraction buffer (850 μL 1 M HEPES pH7.4, 100 μL 20 mM PMPA and 100 μL 1M NaCl) for 30 min. […] The eluate of each organ was diluted with water and analysed by radio-HPLC.
The organs (tumour, kidney, liver) were separately homogenised in a 2 mL tube together with 3 grinding balls (3 mm diameter) and 1 mL of extraction buffer (850 μL 1 M HEPES pH7.4, 100 μL 20 mM PMPA and 100 μL 1M NaCl) for 10 min at 30 Hz. […] The eluate of each organ was diluted with water and analysed by radio-HPLC. […]

[2] = tested on: PSMA-positive LNCaP cells; assay: Internalization in LNCaP cells, normalized to ([125I]I-BA)KuE; assay type: cell-based; settings: LNCaP cells, 1 hour, 37° C.
Experimental: Data is corrected for non-specific binding ([…]) and expressed as mean±SD (n=3).
Subsequent to the removal of the culture medium, the cells were washed once with 500 μL DMEM-F12 (5% BSA) and left to equilibrate for at least 15 min at 37° C. in 200 μL DMEM-F12 (5% BSA). Each well was treated with either 25 μL of either DMEM-F12 (5% BSA) or a 100 μM PMPA solution for blockade. Next, 25 μL of the ^68Ga/^18F-labeled PSMA inhibitor (5.0 nM) was added and the cells incubated at 37° C. for 60 min. The experiment was terminated by placing the 24-well plate on ice for 3 min and consecutive removal of the medium. Each well was rinsed with 250 μL HBSS and the fractions from these first two steps combined, representing the amount of free radioligand. Removal of surface bound activity was accomplished by incubation of the cells with 250 μL of ice-cold PMPA (10 μM in PBS) solution for 5 min and rinsed again with another 250 μL of ice-cold PBS. The internalized activity was determined by incubation of the cells in 250 μL 1 M NaOH and the combination with the fraction of a subsequent wash step with 250 μL 1.0 M NaOH. Each experiment (control and blockade) was performed in triplicate. Free, surface bound and internalized activity was quantified in a γ-counter. […] Data were corrected for non-specific internalization and normalized to the specific-internalization observed for the radioiodinated reference compound.

human serum albumin = target: T1, human serum albumin (Homo sapiens, UniProt P02768); assay: HSA binding on Chiralpak HSA column; assay type: in vitro ADME; settings: Chiralpak HSA column (50 × 3 mm, 5 μm)
T1 construct: purchased H13H-2433
Experimental: The mobile phase (A: NH4OAc, 50 mM in water, pH 7 and B: isopropanol) was freshly prepared for each experiment and only used for one day. The column was kept at room temperature and each run was stopped after detection of the signal to reduce the acquisition time. All substances were dissolved in a 0.5 mg/ml concentration in 50% 2-propanol and 50% 50 mM pH 6.9 ammonium acetate buffer. […] All nine reference substances were injected consecutively to establish a non-linear regression with Origin Pro 2016G.

[3] = tested on: LNCaP tumor-bearing SCID mice; assay: Biodistribution at 1 h p.i.; assay type: in vivo
Experimental: FIG. 10: Biodistribution (in % ID/g) of ^18E-labeled rhPSMA tracers at 1 h p.i in LNCaP tumor-bearing SCID mice. Data are expressed as mean±SD (n=4 for rhPSMA7.1, n=5 for 7.2, n=4 for 7.3, n=5 for 7.4 and n=3 for 7-rac).

PSMA = target: T2, PSMA (Homo sapiens, UniProt Q04609); assay: Determination of IC50: PSMA affinity, competitive binding on LNCaP cells against ([125I]I-BA)KuE; settings: LNCaP cells, [125I]IB-KuE c=0.2 nM, 1 h, 4° C.
T2 construct: endogenous in cells; host or cells: LNCaP cells
Experimental: Data are expressed as mean±SD (n=3, in 3 different experiments).
After removal of the culture medium, the cells were treated once with 500 μL of HBSS (Hank's balanced salt solution, Biochrom, Berlin, Germany, with addition of 1% bovine serum albumin (BSA)) and left 15 min on ice for equilibration in 200 μL HBSS (1% BSA). […] Quantification of bound and free radioligand was accomplished in a γ-counter.

[4] = tested on: LNCaP tumor-bearing SCID mice; assay: Biodistribution at 1 h p.i. with competition (co-injected PMPA); assay type: in vivo; settings: co-injected with PMPA (8 mg/kg)
Experimental: FIG. 11: Biodistribution [% ID/g] of ^18F-rhPSMAs co-injected with PMPA (8 mg/kg) at 1 h p.i in LNCaP tumor-bearing SCID mice. Data are expressed as mean±SD (n=3).

T2 sequence (Q04609 whole entry): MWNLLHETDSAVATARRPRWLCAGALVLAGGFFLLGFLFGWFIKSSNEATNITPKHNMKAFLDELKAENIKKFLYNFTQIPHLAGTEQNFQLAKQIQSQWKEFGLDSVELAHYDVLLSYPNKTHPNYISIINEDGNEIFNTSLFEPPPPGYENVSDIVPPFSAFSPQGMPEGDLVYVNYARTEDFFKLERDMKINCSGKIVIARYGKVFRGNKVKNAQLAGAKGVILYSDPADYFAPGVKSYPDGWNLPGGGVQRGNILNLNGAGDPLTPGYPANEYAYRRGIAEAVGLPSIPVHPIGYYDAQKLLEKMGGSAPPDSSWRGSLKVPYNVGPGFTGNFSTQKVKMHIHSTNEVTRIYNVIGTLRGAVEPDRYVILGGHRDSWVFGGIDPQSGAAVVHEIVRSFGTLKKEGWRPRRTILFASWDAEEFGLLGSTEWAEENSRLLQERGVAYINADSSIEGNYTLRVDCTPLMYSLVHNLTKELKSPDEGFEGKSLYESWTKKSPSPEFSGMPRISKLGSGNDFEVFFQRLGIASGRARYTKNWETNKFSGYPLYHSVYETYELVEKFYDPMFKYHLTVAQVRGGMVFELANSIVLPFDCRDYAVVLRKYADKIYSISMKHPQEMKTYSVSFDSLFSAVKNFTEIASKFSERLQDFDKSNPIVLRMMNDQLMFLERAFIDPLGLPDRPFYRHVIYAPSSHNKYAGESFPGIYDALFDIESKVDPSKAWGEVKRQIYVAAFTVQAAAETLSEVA
T1 sequence (P02768 25-609): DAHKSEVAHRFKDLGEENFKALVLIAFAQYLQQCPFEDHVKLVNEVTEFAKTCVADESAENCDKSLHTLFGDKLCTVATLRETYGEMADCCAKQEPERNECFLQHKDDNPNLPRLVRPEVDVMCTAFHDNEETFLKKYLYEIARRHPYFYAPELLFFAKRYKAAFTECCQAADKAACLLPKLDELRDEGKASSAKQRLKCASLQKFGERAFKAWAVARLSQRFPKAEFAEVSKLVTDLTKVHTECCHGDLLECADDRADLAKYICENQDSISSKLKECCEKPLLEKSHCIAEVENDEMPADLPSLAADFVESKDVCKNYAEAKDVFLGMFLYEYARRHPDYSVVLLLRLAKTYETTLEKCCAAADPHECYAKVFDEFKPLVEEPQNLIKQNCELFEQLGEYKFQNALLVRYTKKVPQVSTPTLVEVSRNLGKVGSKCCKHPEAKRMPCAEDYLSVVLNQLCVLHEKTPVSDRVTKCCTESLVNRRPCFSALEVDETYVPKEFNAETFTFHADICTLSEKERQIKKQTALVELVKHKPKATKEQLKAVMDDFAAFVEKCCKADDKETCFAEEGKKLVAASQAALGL

CC(C)(C)[Si](F)(c1ccc(C(=O)NC[C@@H](NC(=O)CC[C@H](C(=O)O)N2CCN(CC(=O)[O-])CCN(CC(=O)[O-])CCN(CC(=O)[O-])CC2)C(=O)N[C@H](CCCCNC(=O)CCC(=O)NCCC[C@@H](NC(=O)CC[C@H](NC(=O)N[C@@H](CCC(=O)O)C(=O)O)C(=O)O)C(=O)O)C(=O)O)cc1)C(C)(C)C.[Ga+3] [rhPSMA7.1, [^19F][^natGa]D-Dap-R-DOTAGA-rhPSMA7]
percentage change of isomer in sample with respect to its proportion in the injected solution [1]: largest positive percentage change | individual internalization rates ([2]; c=0.5 nM, single measurements): 77.5 % of [^125I]IB-KuE and 61.8 % of [^125I]IB-KuE and 70.6 % of [^125I]IB-KuE and 68.0 % of [^125I]IB-KuE and 67.9 % of [^125I]IB-KuE and 71.5 % of [^125I]IB-KuE | internalization rate Mean ([2]; mean): 69.55 % of [^125I]IB-KuE | HSA Binding (human serum albumin): 97.7% | Biodistribution adrenals [3]: 2.0 ± 0.25 % ID/g | Biodistribution blood [3]: 0.53 ± 0.13 % ID/g | Biodistribution bone [3]: 0.50 ± 0.31 % ID/g | Biodistribution heart [3]: 0.53 ± 0.03 % ID/g | Biodistribution intestine [3]: 0.30 ± 0.16 % ID/g | Biodistribution kidneys [3]: 220 ± 24.8 % ID/g | Biodistribution liver [3]: 0.75 ± 0.62 % ID/g | Biodistribution lung [3]: 1.1 ± 0.21 % ID/g | Biodistribution muscle [3]: 0.32 ± 0.30 % ID/g | Biodistribution pancreas [3]: 0.45 ± 0.12 % ID/g | Biodistribution spleen [3]: 20.0 ± 4.2 % ID/g | Biodistribution stomach [3]: 0.28 ± 0.17 % ID/g | Biodistribution tumor ([3]; LNCaP tumor): 14.1 ± 4.1 % ID/g | IC50 (PSMA; HBSS+1% BSA, single measurements, read-out: individual IC50 measurements): 5.04 nM and 7.11 nM and 8.31 nM and 4.97 nM and 6.44 nM and 8.74 nM and 6.91 nM and 7.27 nM | IC50 (PSMA; mean of individual measurements, read-out: IC50 Mean): 6.85 nM | Biodistribution adrenals [4]: 0.003 ± 0.004 % ID/g | Biodistribution blood [4]: 0.86 ± 0.40 % ID/g | Biodistribution bone [4]: 0.33 ± 0.24 % ID/g | Biodistribution heart [4]: 0.37 ± 0.16 % ID/g | Biodistribution intestine [4]: 0.66 ± 0.32 % ID/g | Biodistribution kidneys [4]: 10.9 ± 2.5 % ID/g | Biodistribution liver [4]: 0.43 ± 0.07 % ID/g | Biodistribution lung [4]: 0.85 ± 0.29 % ID/g | Biodistribution muscle [4]: 0.17 ± 0.15 % ID/g | Biodistribution pancreas [4]: 0.16 ± 0.10 % ID/g | Biodistribution spleen [4]: 0.21 ± 0.08 % ID/g | Biodistribution stomach [4]: 0.97 ± 0.81 % ID/g | Biodistribution tumor ([4]; LNCaP tumor): 0.94 ± 0.22 % ID/g
